From patent publication US8227425B2, “Antiviral compounds” (Therapicon Srl, priority 2007, dated 2012)
pIC50: −log10 of the molar value. Like-named read-outs stand apart in the source and are kept apart here.

Experiments:
Test in all cases: microbe, parasite or virus in culture
A/Panama/2007/99-H3N2 = type: cell-based, influenza virus type A; conditions: for pIC50: Influenza A virus, H3N2, MDCK, 72 h, read-out: concentration of the compound necessary to reduce the plaques number to 50% against the control
[1] = tested on: A/NewCaledonia/20/99-H1N1; type: cell-based, influenza virus type A; conditions: for pIC50: Influenza A virus, H1N1, MDCK, 72 h, read-out: concentration of the compound necessary to reduce the plaques number to 50% against the control
B/Shandong/7/97 = type: cell-based; conditions: for pIC50: Influenza B virus, 72 h, read-out: concentration of the compound necessary to reduce the plaques number to 50% against the control
[2] = MDCK cells, about 50 PFU/ml, 3 days, tested 0.01-100 μM, duplicate

| Structure (SMILES) | pIC50 (A/Panama/2007/99-H3N2) | antiviral activity relative to amantadine (fold less) [1] [fold] | pIC50 [1] | pIC50 (B/Shandong/7/97; [2]) | pIC50 (B/Shandong/7/97; MDCK) | antiviral activity relative to memantine (fold more) (A/Panama/2007/99-H3N2) [fold] | antiviral activity relative to memantine (fold more) [1] [fold] | antiviral activity against influenza virus type B in the tested concentration range (B/Shandong/7/97; tested 0.01-100 μM, PRA) |
| --- | --- | --- | --- | --- | --- | --- | --- | --- |
| CC(=O)NC1C(O)CC(O)(C(=O)O)OC1CNC12CC3CC(CC(C3)C1)C2 (stereo not shown) [Compound 1] | 5.00 | 10 | 6.00 | 5.00 | – | – | – | – |
| NC12CC3CC(CC(C3)C1)C2 [Amantadine, amantadine, reference compound] | 5.00 | – | 7.00 | – | < 4.00 | – | – | – |
| CC12CC3CC(C)(C1)CC(N)(C3)C2 [Memantine, memantine, reference compound] | 4.00 | – | 4.00 | 4.00 | – | – | – | – |
| CC(=O)NC1C(O)CC(O)(C(=O)O)OC1CNC12CC3CC(C)(CC(C)(C3)C1)C2 (stereo not shown) [Compound 8] | 5.00 | – | 5.00 | < 4.00 | – | ~10 | ~10 | Any antiviral activity of Compound 8 has been evidenced |
